13 molecules from patent publication US11542492B2 (Celgene CAR LLC, priority 2009, dated 2023) can be followed below.

In general, IC50 refers to the point on the concentration scale where inhibition reaches its midpoint.

In assay [1] the target is T1, HCV NS3/4A 1b protease enzyme (wild type) (Hepatitis C virus genotype 1b, UniProt P26663).
T1 construct: 10× stocks of NS3/4A protease enzyme from Bioenza (Mountain View, Calif.); purchased Bioenza
Description: HCV protease FRET assay (IC50_APP), wild type NS3/4A 1b. Format: biochemical. An outline of the steps: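 Wild-type NS3/4A 1b protease with serially diluted compounds (from 50% DMSO stocks); reaction started at once with FRET substrate and followed 60-90 min at ex485/em520. Initial velocities (0 to 15+ min) normalised to no-inhibitor and no-enzyme controls; apparent IC50 from variable-slope log[inhibitor]-response fit.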

In assay [2] the target is T2, HCV NS3 protease WT 1b (Hepatitis C virus genotype 1b, UniProt P26663).
T2 construct: The single-chain proteolytic domain (NS4A21-32-GSGS-NS33-631) was cloned into pET-14b; His tag (own knowledge of vector pET-14b); made in house; host or cells: Escherichia coli BL21
Description: MALDI MS of intact HCV protease 1b WT incubated with compound. Format: binding. The note with it: WT 1b, 1 HR. The procedure:
Intact HCV (protease) 1bWT was incubated for 1 hr at a 10× fold excess of XVI-26 to protein. 3 ul aliquots of the samples were diluted with 10 ul of 0.1% TFA prior to micro C4 ZipTipping directly onto the MALDI target using Sinapinic acid as the desorption matrix (10 mg/mL in 0.1% TFA:Acetonitrile 50:50). […] Due to likely protein misfolding during protein purification, a small portion of the misfolded protein was not modified.
In order to determine whether the modification of the protein occurred at lysine, the pH from the above experiment was increased from 7.4 to 10.0. Because the compound lysine adduct would be an amide any increase in pH would have minimal effect on the modified protein. If however, the modification occurred at cysteine the resultant thioester bond would be unstable and the compound would hydrolyze off the protein.
Intact HCV (protease) 1bWT, C159S, and C159S/K136A were incubated for 1 hr at a 10× fold excess of XVI-26 to protein. 3 μl aliquots of the samples were diluted with 10 μl of 0.1% TFA prior to micro C4 ZipTipping directly onto the MALDI target using Sinapinic acid as the desorption matrix (10 mg/mL in 0.1% TFA:Acetonitrile 50:50).
Intact HCV (protease) WT1b was incubated for 1 hr at a 10× fold excess of XVI-1 (mw=782.87) to protein. 3 μl aliquots of the samples were diluted with 10 μl of 0.1% TFA prior to micro C4 ZipTipping directly onto the MALDI target using Sinapinic acid as the desorption matrix (10 mg/mL in 0.1% TFA:Acetonitrile 50:50). […] Due to some protein misfolding during the purification of the protein, the unfolded portion of the protein can not react with XVI-1.

In assay [3] the target is T3, PDPK1 (Homo sapiens, UniProt O15530).
T3 sequence (O15530 1-556): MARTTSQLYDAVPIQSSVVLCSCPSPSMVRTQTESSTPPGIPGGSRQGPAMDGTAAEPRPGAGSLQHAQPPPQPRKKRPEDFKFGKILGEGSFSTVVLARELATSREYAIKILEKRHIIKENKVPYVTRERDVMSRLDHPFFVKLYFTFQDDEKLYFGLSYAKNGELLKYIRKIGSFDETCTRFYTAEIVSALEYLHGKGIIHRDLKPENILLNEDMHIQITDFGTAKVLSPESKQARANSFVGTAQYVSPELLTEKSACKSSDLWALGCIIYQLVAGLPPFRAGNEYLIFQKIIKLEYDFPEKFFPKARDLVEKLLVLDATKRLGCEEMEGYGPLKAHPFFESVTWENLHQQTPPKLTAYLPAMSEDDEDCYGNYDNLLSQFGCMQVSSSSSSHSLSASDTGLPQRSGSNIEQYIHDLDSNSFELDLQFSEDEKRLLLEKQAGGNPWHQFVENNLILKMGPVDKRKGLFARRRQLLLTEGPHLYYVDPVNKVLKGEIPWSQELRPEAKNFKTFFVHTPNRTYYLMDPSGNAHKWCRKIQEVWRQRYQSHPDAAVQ
Description: MALDI MS of intact PDPK1 incubated with compound. The note with it: PDPK1 whole protein, MS. On the set-up: purchased Millipore 14-452. Type of assay: binding. The procedure:
Intact PDPK1 was incubated for 3 hr at a 10-fold excess of compound XI-27 to protein. 3 μL aliquots of the samples were diluted with 10 μL of 0.1% TFA prior to micro C4 Ziptipping directly onto the MALDI target plate using sinapinic acid as the desorption matrix (10 mg/mL in 0.1% TFA:Acetonitrile 50:50).
Intact PDPK1 was incubated for 3 hr at a 10-fold excess of compound XI-21 to protein. 3 μL aliquots of the samples were diluted with 10 μL of 0.1% TFA prior to micro C4 Ziptipping directly onto the MALDI target plate using sinapinic acid as the desorption matrix (10 mg/mL in 0.1% TFA:Acetonitrile 50:50).
For example, Table 7 lists non-limiting examples of compounds that modify PDPK1 whole protein, the number of modifications per protein and the lysines modified within the protein. […] Also, the lysine modified in PDPK-1 by XI-27, XI-26, XI-22, and XI-21 are not the same for each compound. Without wishing to be bound to any particular theory, the position of the warhead, as presented by the scaffold and tether to the lysines in the binding site, effects different results on the modification of the different lysines in the binding site of PDPK-1.

On to `C=C[C@@H]1C[C@]1(NC(=O)[C@@H]1CC(Oc2nccc3cc(OC)ccc23)CN1C(=O)[C@H](CCC(=O)N1C[C@@H]2C[C@H]1C(=O)O2)NC(=O)OC(C)(C)C)C(=O)NS(=O)(=O)C1CC1` (stereo partly drawn) [XVI-9, tert-butyl(2S)-1-((2S)-2-((1R,2S)-1-(cyclopropylsulfonylcarbamoyl)-2-vinylcyclopropylcarbamoyl)-4-(6-methoxyisoquinolin-1-yloxy)pyrrolidin-1-yl)-1,5-dioxo-5-((1S,4S)-3-oxo-2-oxa-5-azabicyclo[2.2.1]heptan-5-yl)pentan-2-ylcarbamate], for which, in assay [1], the IC50 was less than 1 nM. The “MS_HCVNS3_INTACT_NS3 WT 1b 1 HR” value in assay [2] was “H (>50% and ≤70% modification)”.
As to `C=C[C@@H]1C[C@]1(NC(=O)[C@@H]1CC(OC(=O)N2Cc3cccc(F)c3C2)CN1C(=O)[C@H](COC(=O)N[C@@H]1C(=O)O[C@@H]1C)NC(=O)OC(C)(C)C)C(=O)NS(=O)(=O)C1CC1` (stereo partly drawn) [XVI-25, (5S)-1-((S)-2-(tert-butoxycarbonylamino)-3-((2R,3S)-2-methyl-4-oxooxetan-3-ylcarbamoyloxy)propanoyl)-5-((1R,2S)-1-(cyclopropylsulfonylcarbamoyl)-2-vinylcyclopropylcarbamoyl)pyrrolidin-3-yl 4-fluoroisoindoline-2-carboxylate], the IC50 in assay [1] was less than 1 nM. Besides, the “MS_HCVNS3_INTACT_NS3 WT 1b 1 HR” value in assay [2] is “K (≤30% modification)”.
For `C=C[C@@H]1C[C@]1(NC(=O)[C@@H]1CC(OC(=O)N2Cc3cccc(F)c3C2)CN1C(=O)[C@H](CCC(=O)N1C[C@@H]2C[C@H]1C(=O)O2)NC(=O)OC(C)(C)C)C(=O)NS(=O)(=O)C1CC1` (stereo partly drawn) [XVI-17, (5S)-1-((S)-2-(tert-butoxycarbonylamino)-5-oxo-5-((1S,4S)-3-oxo-2-oxa-5-azabicyclo[2.2.1]heptan-5-yl)pentanoyl)-5-((1R,2S)-1-(cyclopropylsulfonylcarbamoyl)-2-vinylcyclopropylcarbamoyl)pyrrolidin-3-yl 4-fluoroisoindoline-2-carboxylate] the same measures were less than 1 nM and “G (>70% modification)”.
As for `C=C[C@@H]1C[C@]1(NC(=O)[C@@H]1CC(OC(=O)N2Cc3cccc(F)c3C2)CN1C(=O)[C@H](CC(=O)N1C[C@@H]2C[C@H]1C(=O)O2)NC(=O)OC(C)(C)C)C(=O)NS(=O)(=O)C1CC1` (stereo partly drawn) [XVI-15, (5S)-1-((S)-2-(tert-butoxycarbonylamino)-4-oxo-4-((1S,4S)-3-oxo-2-oxa-5-azabicyclo[2.2.1]heptan-5-yl)butanoyl)-5-((1R,2S)-1-(cyclopropylsulfonylcarbamoyl)-2-vinylcyclopropylcarbamoyl)pyrrolidin-3-yl 4-fluoroisoindoline-2-carboxylate], the IC50 in assay [1] was less than 1 nM. Also, the “MS_HCVNS3_INTACT_NS3 WT 1b 1 HR” value in assay [2] was “H (>50% and ≤70% modification)”.
Consider `C=C[C@@H]1C[C@]1(NC(=O)[C@@H]1CC(Oc2nccc3cc(OC)ccc23)CN1C(=O)[C@H](CCC(=O)N1C[C@@H]2CC[C@H]1C(=O)O2)NC(=O)OC(C)(C)C)C(=O)NS(=O)(=O)C1CC1` (stereo partly drawn) [XVI-3, tert-butyl(2S)-1-((2S)-2-((1R,2S)-1-(cyclopropylsulfonylcarbamoyl)-2-vinylcyclopropylcarbamoyl)-4-(6-methoxyisoquinolin-1-yloxy)pyrrolidin-1-yl)-1,5-dioxo-5-((1S,4S)-3-oxo-2-oxa-5-azabicyclo[2.2.2]octan-5-yl)pentan-2-ylcarbamate], for which the 50% inhibitory concentration (IC50) in assay [1] is less than 1 nM. Besides, in assay [2], the “MS_HCVNS3_INTACT_NS3 WT 1b 1 HR” value is “K (≤30% modification)”.
For `C=C[C@@H]1C[C@]1(NC(=O)[C@@H]1C[C@@H](OC(=O)N2Cc3cccc(F)c3C2)CN1C(=O)[C@H](CNC(=O)c1coc(C(C)=O)c1)NC(=O)OC(C)(C)C)C(=O)NS(=O)(=O)C1CC1` [XVI-5] the same measures were 100 to 1000 nM and “K (≤30% modification)”.
Take `C=C[C@@H]1C[C@]1(NC(=O)[C@@H]1CC(OC(=O)N2Cc3cccc(F)c3C2)CN1C(=O)[C@H](CC(=O)N1C[C@H]2C[C@@H]1C(=O)O2)NC(=O)OC(C)(C)C)C(=O)NS(=O)(=O)C1CC1` (stereo partly drawn) [XVI-14, (5S)-1-((S)-2-(tert-butoxycarbonylamino)-4-oxo-4-((1R,4R)-3-oxo-2-oxa-5-azabicyclo[2.2.1]heptan-5-yl)butanoyl)-5-((1R,2S)-1-(cyclopropylsulfonylcarbamoyl)-2-vinylcyclopropylcarbamoyl)pyrrolidin-3-yl 4-fluoroisoindoline-2-carboxylate]: the IC50 in assay [1] is less than 1 nM. Also, in assay [2], the “MS_HCVNS3_INTACT_NS3 WT 1b 1 HR” value is “H (>50% and ≤70% modification)”.
For the molecule `C=C[C@@H]1C[C@]1(NC(=O)[C@@H]1CC(Oc2nccc3cc(OC)ccc23)CN1C(=O)[C@H](CC(=O)N1C[C@H]2C[C@@H]1C(=O)O2)NC(=O)OC(C)(C)C)C(=O)NS(=O)(=O)C1CC1` (stereo partly shown) [XVI-6], in assay [1], the IC50 lay in the range of 1 to 10 nM. Besides, the “MS_HCVNS3_INTACT_NS3 WT 1b 1 HR” value in assay [2] is “H (>50% and ≤70% modification)”.
Consider `C=C[C@@H]1C[C@]1(NC(=O)[C@@H]1C[C@@H](OC(=O)N2Cc3cccc(F)c3C2)CN1C(=O)[C@H](CNC(=O)c1cc(C(C)=O)oc1C)NC(=O)OC(C)(C)C)C(=O)NS(=O)(=O)C1CC1` [XVI-4], for which the IC50 in assay [1] lay within 100 to 1000 nM. Further, the “MS_HCVNS3_INTACT_NS3 WT 1b 1 HR” value in assay [2] is “K (≤30% modification)”.
Turning to `C=CC(=O)Nc1cccc(Nc2ncc(Br)c(NCCCNC(=O)C(C)(C)C(N)=O)n2)c1` [XI-53], the “Number of Modifications on Whole Protein” value in assay [3] is recorded as 1.
As to `C=C[C@@H]1C[C@]1(NC(=O)[C@@H]1CC(Oc2nccc3cc(OC)ccc23)CN1C(=O)[C@H](CCC(=O)N1C[C@H]2C[C@@H]1C(=O)O2)NC(=O)OC(C)(C)C)C(=O)NS(=O)(=O)C1CC1` (stereo partly shown) [XVI-8], the IC50 in assay [1] was less than 1 nM. In addition, the “MS_HCVNS3_INTACT_NS3 WT 1b 1 HR” value in assay [2] is reported as “G (>70% modification)”.
For `C=C[C@@H]1C[C@]1(NC(=O)[C@@H]1CC(Oc2cc(-c3ccccc3)nc3cc(OC)ccc23)CN1C(=O)[C@H](CNC(=O)[C@@H]1CCC(=O)O1)NC(=O)OC(C)(C)C)C(=O)NS(=O)(=O)C1CC1` (stereo partly drawn) [XVI-24, tert-butyl(2S)-1-((2S)-2-((1R,2S)-1-(cyclopropylsulfonylcarbamoyl)-2-vinylcyclopropylcarbamoyl)-4-(7-methoxy-2-phenylquinolin-4-yloxy)pyrrolidin-1-yl)-1-oxo-3-((S)-5-oxotetrahydrofuran-2-carboxamido)propan-2-ylcarbamate] the same measures were 1 to 10 nM and “K (≤30% modification)”.
Regarding `C=C[C@@H]1C[C@]1(NC(=O)[C@@H]1CC(Oc2nccc3cc(OC)ccc23)CN1C(=O)[C@H](CCC(=O)N1CC[C@H]2C[C@@H]1C(=O)O2)NC(=O)OC(C)(C)C)C(=O)NS(=O)(=O)C1CC1` (stereo partly shown) [XVI-2], the IC50 in assay [1] was less than 1 nM. The “MS_HCVNS3_INTACT_NS3 WT 1b 1 HR” value in assay [2] was “K (≤30% modification)”.
